GI50 and TGI data for nine compounds are collected here from PubChem BioAssay (NCI).

The structures appear in SMILES notation.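 Test compounds were applied to cells in 96-well plates for 48 hours at 5 doses. GI50 marks 50% less growth. TGI: total growth inhibition.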

Holding throughout (assay): inhibition of tumour cell growth, NCI panel, 48 h
Assay [1] has as its system HCT-116 colon.
Assay [2] deals with M14 melanoma.
The test system of assay [3] is COLO 205 colon.
Assay [4] has as its system HL-60(TB) leukemia.
Assay [5] has as its system SF-539 CNS.
In assay [6] the test system is HOP-92 NSCLC.
The subject of assay [7] is UO-31 renal.
The subject of assay [8] is HT29 colon.
Assay [9] has as its system NCI-H226 lung.
For assay [10], the system named is SW-620 colon.

Take `CN(C)CCCN(CCC1CCCCC1)CCC1CCCCC1`: the GI50 in assay [1] is 1.57 µM; in assay [2] it was 1.87 µM; in [3], 1.48 µM; in assay [4], 2.09 µM; in assay [5], 1.68 µM; in assay [6], 1 µM. Further, the GI50 in [7] is 1.38 µM; in assay [8], 0.73 µM; in [9] it was 12.1 µM; in assay [10], 1.75 µM. Also, the TGI in assay [1] came out at 3.64 µM; in assay [2], 3.66 µM; in assay [3] it was 3.36 µM; in assay [4], 9.88 µM; in [5], 3.16 µM; in [6], 9.7 µM. Moreover, the TGI in assay [7] came to 4.24 µM; in assay [8] it was 6.81 µM; in assay [9], 26.7 µM; in assay [10], 3.31 µM.
As for `CCOC(=O)C(=O)Nc1nc2c(OCC)cccc2s1`, the TGI in [1], in assay [2], in [3], in assay [4], in assay [5] and in [6] was greater than 100 µM in each case. Moreover, the TGI in assay [7], in assay [8], in assay [9] and in [10] was greater than 100 µM each time.
Regarding `CCCCC(CCCCCC(CCCC)NCc1ccc2c(c1)OCO2)NCc1ccc2c(c1)OCO2` (stereo not given), the GI50 in [1] is 0.194 µM; in [2], 0.182 µM; in assay [3] it was 0.189 µM; in [4], 0.458 µM; in assay [5], 0.664 µM; in [6] it was 0.569 µM. The GI50 in assay [7] is 0.481 µM; in [8], 0.262 µM; in [9], 1.91 µM; in assay [10], 0.206 µM. Also, the TGI in assay [1] was 0.369 µM; in [2], 0.324 µM; in assay [3], 0.35 µM; in assay [4] it was 1.21 µM; in assay [5] it was 1.48 µM; in assay [6], 2.08 µM. Moreover, the TGI in assay [7] amounted to 1.16 µM; in assay [8], 0.687 µM; in assay [9], 4.02 µM; in assay [10] it was 0.437 µM.
Turning to `Cc1ccc2oc(=O)cc(/C(=C3/C=CC=N3)c3ccc[nH]3)c2c1`, the GI50 in [1] was 0.375 µM; in assay [2], 0.209 µM; in assay [3], 1.49 µM; in [4] it was 0.271 µM; in [5], 0.226 µM; in [6], 0.155 µM. Besides, the GI50 in assay [7] was 0.45 µM; in assay [8], 0.349 µM; in assay [9], 0.753 µM; in assay [10], 0.396 µM. Further, the TGI in assay [1] stood at 1.79 µM; in [2], 0.548 µM; in assay [3], 3.49 µM; in [4] it was 0.717 µM; in assay [5], 0.67 µM; in assay [6] it was 2.57 µM. For the same compound, the TGI in assay [7] worked out at 5.11 µM; in assay [8] it was 1.42 µM; in assay [9] it was 4.58 µM; in [10], 13.7 µM.
With `CC(CCC[C@H](C)CO)[C@H]1[C@@H](O)C(O)C2[C@@H]3C[C@@H](O)C4(O)C[C@@H](O)CC[C@]4(C)C3CC[C@@]21C` (stereo not given in full), the TGI in [1], in [2], in [3], in assay [4], in assay [5] and in assay [6] was greater than 100 µM throughout. Moreover, the TGI in assay [7], in assay [8], in [9] and in assay [10] was greater than 100 µM throughout.
On to `Cn1c(=O)c(Oc2ccc(F)cc2F)cc2cnc(NC(C)(C)CO)nc21`, for which the GI50 in assay [1] was greater than 25 µM; in [2] it was greater than 25 µM; in assay [3], greater than 25 µM; in assay [4] it was greater than 25 µM; in assay [5], greater than 25 µM; in [6] it was 7.44 µM. The GI50 in assay [7] was 6.65 µM; in [8] it was greater than 25 µM; in assay [9], greater than 25 µM; in [10] it was greater than 25 µM. The TGI in [1], in [2], in assay [3], in assay [4], in assay [5] and in [6] was greater than 25 µM each time. Moreover, the TGI in [7] was greater than 13.4 µM; in assay [8] it was greater than 25 µM; in assay [9], greater than 25 µM; in [10], greater than 25 µM.
For the compound `CC(CC(=O)N1C(=O)C(C)(C)[C@@H](O)[C@H]1CC(C)C(Cl)(Cl)Cl)C(Cl)(Cl)Cl` (stereo not given in full), the TGI in assay [1], in [2], in assay [3], in assay [4], in assay [5] and in [6] was greater than 100 µM each time. The TGI in [7], in assay [8], in assay [9] and in assay [10] was greater than 100 µM each time.
As to `COc1cc(Oc2c(C)c(Cl)c(OC)c(Cl)c2OC)c2c(c1Cl)COC2=O`, the TGI was greater than 100 µM in [1]; greater than 100 µM in assay [2]; greater than 100 µM in [3]; 31.6 µM in assay [4]; greater than 100 µM in assay [5]; greater than 100 µM in [6]. The TGI in assay [7], in assay [8], in assay [9] and in assay [10] was greater than 100 µM each time.
Consider `CCOC(=O)C(=O)C=P(c1ccccc1)(c1ccccc1)c1ccccc1`, for which the TGI in assay [1], in assay [2], in assay [3], in assay [4], in assay [5] and in assay [6] was greater than 100 µM each time. Further, the TGI in assay [7], in [8], in assay [9] and in assay [10] was greater than 100 µM in each case.
